US8822468B2 (Novartis AG, priority 2008, dated 2014)
pIC50: −log10 of the molar value.

Target: T1, cMET receptor tyrosine kinase (GST-cMET (969-1390)) (Homo sapiens, UniProt P08581)
T1 construct: made in house
Assay: EPK cMET profiling assay (LanthaScreen TR-FRET antibody based kinase phosphorylation assay)
Assay type: biochemical
Details: purified recombinant GST-cMET (969-1390), 2 μM ATP, 50 nM Fluorescein-PolyEAY, 60 minutes at room temperature; read-out: c-Met IC50
Summary of the method: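 Compounds tested at eight final concentrations from 10 down to 0.003 µM against affinity-purified GST-cMET (969-1390, 0.3 nM) with 2 µM ATP and 50 nM fluorescein-PolyEAY in Tris buffer with MgCl2 and MnCl2, 1 h at room temperature. After EDTA stop, phosphoproduct detected by LanthaScreen TR-FRET with Tb-PY20 antibody, end-point measurement.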

T1 sequence (P08581 969-1390): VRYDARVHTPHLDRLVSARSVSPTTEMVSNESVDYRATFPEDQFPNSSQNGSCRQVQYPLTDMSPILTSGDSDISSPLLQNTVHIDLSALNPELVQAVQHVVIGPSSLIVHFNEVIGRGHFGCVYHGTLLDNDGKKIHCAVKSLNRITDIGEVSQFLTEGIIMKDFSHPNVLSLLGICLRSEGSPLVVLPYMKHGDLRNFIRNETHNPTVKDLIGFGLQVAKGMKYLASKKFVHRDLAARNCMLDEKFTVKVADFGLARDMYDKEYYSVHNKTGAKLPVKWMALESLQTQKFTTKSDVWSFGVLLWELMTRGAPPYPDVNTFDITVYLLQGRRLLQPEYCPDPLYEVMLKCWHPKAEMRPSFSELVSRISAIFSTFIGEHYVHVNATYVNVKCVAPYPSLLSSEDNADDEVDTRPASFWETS

Row | SMILES | pIC50
1 | CS(=O)(=O)c1cccc(Nc2ccc3ncc(Cc4ccc5ncccc5c4)n3n2)c1 [Example 139, (3-Methanesulfonyl-phenyl)-(3-quinolin-6-ylmethyl-imidazo[1,2-b]pyridazin-6-yl)-amine] | 6.89
2 | CC(c1ccc2ncn(C)c2c1)c1cnc2ccc(-c3cnn(C)c3)nn12 (racemic) [Example 206, (rac)-3-[1-(3-Methyl-3H-benzoimidazol-5-yl)-ethyl]-6-(1-methyl-1H-pyrazol-4-yl)-imidazo[1,2-b]pyridazine] | 7.51
3 | Clc1ccc(-c2ccc(-c3ccc4ncc(Cc5ccc6ncccc6c5)n4n3)cn2)cn1 [Example 48, 6′-Chloro-5-(3-quinolin-6-ylmethyl-imidazo[1,2-b]pyridazin-6-yl)-[2,3′]bipyridinyl] | 6.72
4 | CN1CCC(n2cc(-c3ccc4ncc(Cc5ccc6ncccc6c5)n4n3)cn2)CC1 [Example 238, 6-{6-[1-(1-Methyl-piperidin-4-yl)-1H-pyrazol-4-yl]-imidazo[1,2-b]pyridazin-3-ylmethyl}-quinoline] | 6.64
5 | CN1CCC(Nc2ccc3ncc(Cc4ccc5ncccc5c4)n3n2)CC1 [Example 83, (1-Methyl-piperidin-4-yl)-(3-quinolin-6-ylmethyl-imidazo[1,2-b]pyridazin-6-yl)-amine] | 6.94
6 | CC(c1ccc2ncccc2c1)c1cnc2ccc(-c3cnn(C)c3)nn12 (racemic) [Example 157, (rac)-6-{1-[6-(1-Methyl-1H-pyrazol-4-yl)-imidazo[1,2-b]pyridazin-3-yl]-ethyl}-quinoline] | 8.15
7 | Clc1ccc(-c2ccc3ncc(Cc4ccc5ncccc5c4)n3n2)cn1 [Example 47, 6-[6-(6-Chloro-pyridin-3-yl)-imidazo[1,2-b]pyridazin-3-ylmethyl]-quinoline] | 7.00
8 | CCn1cc(-c2ccc3ncc(Cc4ccc5nccn5c4)n3n2)cn1 [Example 289, 6-(1-Ethyl-1H-pyrazol-4-yl)-3-imidazo[1,2-a]pyridin-6-ylmethyl-imidazo[1,2-b]pyridazine] | 6.85
9 | O=C(NCCN1CCCC1)c1ccc(-c2ccc3ncc(Cc4ccc5ncccc5c4)n3n2)cc1Cl [Example 144, 2-Chloro-N-(2-pyrrolidin-1-yl-ethyl)-4-(3-quinolin-6-ylmethyl-imidazo[1,2-b]pyridazin-6-yl)benzamide] | 8.49
10 | CC(=O)NCCNc1ccc2ncc(Cc3ccc4ncccc4c3)n2n1 [Example 96, N-[2-(3-Quinolin-6-ylmethyl-imidazo[1,2-b]pyridazin-6-ylamino)-ethyl]-acetamide] | 6.72
11 | Clc1cccc(-c2ccc3ncc(Cc4ccc5ncccc5c4)n3n2)c1 [Example 53, 6-[6-(3-Chloro-phenyl)-imidazo[1,2-b]pyridazin-3-ylmethyl]-quinoline] | 6.96
12 | CC(C)CNc1ccc2ncc(C(O)c3ccc4ncccc4c3)n2n1 (racemic) [Example 77, (rac)-(6-Isobutylamino-imidazo[1,2-b]pyridazin-3-yl)-quinolin-6-yl-methanol] | 6.65
13 | Cn1cc(-c2ccc3ncc(Cc4c(F)cc5c(cnn5C)c4F)n3n2)cn1 [Example 284, 3-(4,6-Difluoro-1-methyl-1H-indazol-5-ylmethyl)-6-(1-methyl-1H-pyrazol-4-yl)-imidazo[1,2-b]pyridazine] | 6.82
14 | Clc1c(Cc2cnc3ccc(-c4cnn(C5CCNCC5)c4)nn23)ccc2ncccc12 [Example 227, 5-Chloro-6-[6-(1-piperidin-4-yl-1H-pyrazol-4-yl)-imidazo[1,2-b]pyridazin-3-ylmethyl]-quinoline] | 7.11
15 | CC(c1ccc2ncccc2c1Cl)c1cnc2ccc(-c3cnn(CCO)c3)nn12 (racemic) [Example 188, (rac)-2-(4-{3-[1-(5-Chloro-quinolin-6-yl)-ethyl]-imidazo[1,2-b]pyridazin-6-yl}-pyrazol-1-yl)ethanol] | 8.25
16 | Fc1cc2ncccc2c(F)c1Cc1cnc2ccc(-c3cnn(C4CCNCC4)c3)nn12 [Example 245, 5,7-Difluoro-6-[6-(1-piperidin-4-yl-1H-pyrazol-4-yl)-imidazo[1,2-b]pyridazin-3-ylmethyl]-quinoline] | 7.36
17 | COc1ccc(Cc2cnc3ccc(-c4cnn(C)c4)nn23)cc1 [Example 4, 3-(4-methoxy-benzyl)-6-(1-methyl-1H-pyrazol-4-yl)-imidazo[1,2-b]pyridazine] | 6.55
18 | Cn1cc(-c2ccc3ncc(Cc4ccc5ncc(CO)n5c4)n3n2)cn1 [Example 300, {6-[6-(1-Methyl-1H-pyrazol-4-yl)-imidazo[1,2-b]pyridazin-3-ylmethyl]-imidazo[1,2-a]pyridin-3-yl}-methanol] | 6.52
19 | C[C@@H](c1c(F)cc2ncccc2c1F)c1cnc2ccc(-c3cnn(CCO)c3)nn12 [Example 184, 2-(4-{3-[(S)-1-(5,7-Difluoro-quinolin-6-yl)-ethyl]-imidazo[1,2-b]pyridazin-6-yl}-pyrazol-1-yl)ethanol] | > 8.52
20 | c1cnc2ccc(Cc3cnc4ccc(-c5cn[nH]c5)nn34)cc2c1 [Example 212, 6-[6-(1H-Pyrazol-4-yl)-imidazo[1,2-b]pyridazin-3-ylmethyl]-quinoline] | 7.27
21 | O[C@@H]1CCN(c2ccc3ncc(Cc4ccc5ncccc5c4)n3n2)C1 [Example 108, (R)-1-(3-Quinolin-6-ylmethyl-imidazo[1,2-b]pyridazin-6-yl)-pyrrolidin-3-ol] | 8.01
22 | COc1ccc(C(O)c2cnc3ccc(-c4cnn(C)c4)nn23)cc1 (racemic) [Example 3, (rac)-(4-Methoxy-phenyl)-[6-(1-methyl-1H-pyrazol-4-yl)-imidazo[1,2-b]pyridazin-3-yl]-methanol] | 5.40
23 | Cn1cc(-c2ccc3ncc(Cc4ccc5nccn5c4)n3n2)cn1 [Example 10, 3-Imidazo[1,2-a]pyridin-6-ylmethyl-6-(1-methyl-1H-pyrazol-4-yl)-imidazo[1,2-b]pyridazine] | 7.67
24 | OCCNc1ccc2ncc(Cc3ccc4nccn4c3)n2n1 [Example 75, 2-(3-Imidazo[1,2-a]pyridin-6-ylmethyl-imidazo[1,2-b]pyridazin-6-ylamino)-ethanol] | 6.52
25 | O=C1CCN(c2ccc3ncc(Cc4ccc5ncccc5c4)n3n2)CC1 [Example 120, 1-(3-Quinolin-6-ylmethyl-imidazo[1,2-b]pyridazin-6-yl)-piperidin-4-one] | 7.16
26 | CC(c1ccc2ncn(CCN3CCCC3)c2c1)c1cnc2ccc(-c3cnn(C)c3)nn12 (racemic) [Example 207, (rac)-6-(1-Methyl-1H-pyrazol-4-yl)-3-{1-[3-(2-pyrrolidin-1-yl-ethyl)-3H-benzoimidazol-5-yl]-ethyl}-imidazo[1,2-b]pyridazine] | 6.51
27 | C[C@@H](c1cc2cn[nH]c2cc1F)c1cnc2ccc(-c3cnn(C)c3)nn12 [Example 165, 3-[(S)-1-(6-Fluoro-1H-indazol-5-yl)-ethyl]-6-(1-methyl-1H-pyrazol-4-yl)-imidazo[1,2-b]pyridazine] | 7.92
28 | C=Cc1cnc2ccc(Cc3cnc4ccc(-c5cnn(C)c5)nn34)cn12 [Example 299, 6-(1-Methyl-1H-pyrazol-4-yl)-3-(3-vinyl-imidazo[1,2-a]pyridin-6-ylmethyl)-imidazo[1,2-b]pyridazine] | 6.57
29 | C[C@@H](c1ccc2c(cnn2CCO)c1)c1cnc2ccc(-c3cnn(C)c3)nn12 [Example 275, 2-(5-{(S)-1-[6-(1-Methyl-1H-pyrazol-4-yl)-imidazo[1,2-b]pyridazin-3-yl]-ethyl}-indazol-1-yl)ethanol] | 6.82
